In data set [1] the test system is microtubule cytoskeleton of human CG neuroblastoma cells. Description: Antimicrotubule activity, tubulin immunofluorescence microscopy. The note with it: 2 hr at 37° C., read-out: Concentration where microtubule destabilization occurs. The class given is cell-based. On the procedure: The compounds of the invention according to formula I are effective in destabilizing microtubules, thus are useful in treating certain neoplastic diseases. Indirect immunofluorescence microscopy using the monoclonal antibodies to tubulin is used herein to determine the activity of the compounds of this invention in promoting depolymerization of the microtubule cytoskeleton in cultured cells. The following assay was employed.
Cultured human CG neuroblastoma cells were seeded 1:3 from confluent cultures onto sterile 11×22 mm coverslips in 6 well tissue culture plates 16 hr prior to treatment. The following day, the tissue culture medium is removed and the cells are exposed to various concentrations of compounds of this invention in Krebs Ringer Hepes (KRH) buffer containing a final concentration of 0.5% DMSO as carrier. Incubations were performed at 37° C. in a humidified 5% CO2 atmosphere for 2 hr. After incubation, the cells were fixed in 3% TEM grade formaldehyde in PBS for 45 min at room temperature.
To visualize the effects of the compounds of the invention on the microtubule cytoskeleton, the cells were processed for tubulin immunofluorescence. Briefly, the cells were permeabilized in 0.5% Triton-X 100 in PBS for 5 min. The cells were washed 2× with PBS and aldehydes reduced using 0.5 mg/ml NaBH4 in PBS for 5 min. Subsequently, the cells were blocked for 10 min in 1.5% BSA and 1.5% nonfat dry milk in PBS (blocking solution, BS) for 10 min. The cells were then incubated for 30 min at 37° C. with the monoclonal antibody Tu27B which recognizes b-tubulin (dilution 1:20 in BS). Subsequently, the cells were washed 2× in PBS and once in BS. The cells were then incubated for 30 min at 37° C. with sheep antimouse IgG conjugated to FITC. After incubation, the cells were washed 2× in PBS and once in BS and incubated for 30 min at 37° C. with rabbit antisheep IgG conjugated to FITC. The cells were rinsed in PBS, counterstained with Hoechst 33285 in PBS (1 μg/ml), and rinsed in PBS. The coverslips were mounted in 9:1 glycerol:PBS containing 1 mg/ml p-phenylenediamine and sealed with nail polish.
The cells were viewed using a Jenalumar epifluorescence microscope equipped with the proper filters for Fluorescein Isothiocyanate (FITC) excitation and emission. Lack of effect of a compound is evidenced by the presence of an intact microtubule network in interphase cells, or a mitotic spindle in dividing cells. Antineoplastic compounds of the invention at effective doses result in the disappearance of microtubules in both interphase and mitotic cells.

Counter-ions that a name gives are not always drawn. Like-named read-outs stand apart in the source and are kept apart here.

Usually melting point stands for the temperature, or range, at which the solid turns liquid. Turning to `O=C(CCN1CCN(C(=O)c2sc3ccccc3c2Cl)CC1)c1ccc(Br)s1` (as salt: hydrochloride) [Example 86, 1-(5″-Bromo-2″-thienyl)-3-[4′-(3′″-chlorobenzo[b]-2′″-thienoyl)-1′-piperazinyl]-1-propanone dihydrochloride], the melting point is 188 to 189 °C.
Still for that read-out and setting: with `O=C(CCN1CCN(C(c2ccccc2)c2ccc(Cl)cc2)CC1)c1cccs1` (stereo not drawn) (as salt: hydrochloride) [Example 89, 1-(2″-Thienyl)-3-[4′-(1′″-p-chlorophenyl-1′″-phenylmethyl)-1′-piperazinyl]-1-propanone dihydrochloride] the figure was 189 to 201 °C.
Still for that read-out and setting: the result for `O=C(CCN1CCN(Cc2ccccc2)CC1)c1cccn1S(=O)(=O)c1ccccc1` (as salt: hydrochloride) [Example 91, 1-(N-Phenylsulfonylpyrrol-2-yl)-3-(4′-benzyl-1′-piperazinyl)-1-propanone dihydrochloride] reads 215 °C (dec.); that for `O=C(CCN1CCC(C(=O)c2ccc(F)cc2)CC1)c1csc([N+](=O)[O-])c1` (as salt: hydrochloride) [Example 98, 1-(2″-Nitro-4″-thienyl)-3-(4′-p-fluorobenzoyl-1′-piperidinyl)-1-propanone hydrochloride], 205 to 206 °C.
In the case of `O=C(CCN1CCC(Cc2ccccc2)CC1)c1ccc(Br)s1` (as salt: hydrochloride) [Example 99, 1-(5″-Bromo-2″-thienyl)-3-(4′-benzyl-1′-piperidinyl)-1-propanone hydrochloride], the melting point is 205 to 208 °C.
Consider `Cl.Cl.O=C(CCN1CCN(Cc2ccccc2)CC1)c1cccs1` [Example 7, 1-(2″-Thienyl)-3-(4′-benzyl-1′-piperazinyl)-1-propanone dihydrochloride], for which the minimal effective concentration in data set [1] is listed as 20 µM.
`O=C(CCN1CCN(Cc2ccccc2)CC1)c1cc(C(F)(F)F)cc(C(F)(F)F)c1` [Example 9, 1-[3″,5″-Bis-(trifluoromethyl)phenyl]-3-(4′-benzyl-1′-piperazinyl)-1-propanone dihydrochloride]: in data set [1] (Neuroblastoma cell), the minimal effective concentration amounted to 20 µM.
On the same count and under the same terms, with `O=C(CCN1CCN(Cc2ccccc2)CC1)c1ccc2c(c1)CCCC2` [Example 20, 1-(1″,2″,3″,4″-Tetrahydronaphth-6″-yl)-3-(4′-benzyl-1′-piperazinyl)-1-propanone dihydrochloride] the figure was 20 µM; with `O=C(CCN1CCN(Cc2ccccc2)CC1)c1ccc(-c2ccccc2)cc1` [Example 22, 1-p-Biphenyl-3-(4′-benzyl-1′-piperazinyl)-1-propanone dihydrochloride], 20 µM.
On to `Cl.Cl.O=C(CCN1CCN(Cc2ccccc2)CC1)c1ccc(C2CCCCC2)cc1` [Example 27], for which the minimal effective concentration in data set [1] came out at 20 µM.
On the same count and under the same terms, with `Cl.Cl.O=C(CCN1CCN(Cc2cc(F)ccc2F)CC1)c1ccsc1` [Example 38, 1-(3″-Thienyl)-3-[4′-(2′″,5′″-difMuorobenzyl)-1′-piperazinyl]-1-propanone dihydrochloride] the figure was 20 µM.
Turning to `O=C(CCN1CCN(C(=O)c2c(F)cccc2F)CC1)c1ccc([N+](=O)[O-])cc1` [Example 40, 1-(p-Nitrophenyl)-3-[4′-(2″,6″-difluorobenzoyl)-1′-piperazinyl]-1-propanone hydrochloride], in data set [1] (Neuroblastoma cell), the minimal effective concentration worked out at 20 µM.
As to `Cl.O=C(CCN1CCN(C(=O)c2c(F)cccc2F)CC1)c1ccccc1F` [Example 41, 1-(o-Fluorophenyl)-3-[4′-(2″,6″-difluorobenzoyl)1′-piperazinyl]-1-propanone hydrochloride], in data set [1], the minimal effective concentration is 20 µM.
As to `O=C(CCN1CCN(Cc2ccccc2)CC1)c1ccc(C(=O)CCN2CCN(Cc3ccccc3)CC2)cc1` [Example 50], the minimal effective concentration in data set [1] (Neuroblastoma cell) is 20 µM.
Regarding `O=C(CCN1CCN(Cc2ccccc2)CC1)c1ccc2c(c1)-c1ccccc1-2` [Example 58, 1-(Biphenylen-2″-yl)-3-(4′-benzyl-1′-piperazinyl)-1-propanone], the melting point is 133 to 134 °C.
On to `Cl.Cl.N#Cc1cccc(C(=O)CCN2CCN(Cc3ccccc3)CC2)c1` [Example 60, 1-(m-Cyanophenyl)-3-(4′-benzyl-1′-piperazinyl)-1-propanone dihydrochloride], for which the minimal effective concentration in data set [1] came out at 20 µM.
As to `O=C(CCN1CCN(C(=O)c2ccccc2F)CC1)c1cccs1` [Example 70, 1-(2″-Thienyl)-3-[4′-(o-fluorobenzoyl)-1′-piperazinyl]-1-propanone hydrochloride], the minimal effective concentration in data set [1] (Neuroblastoma cell) came out at 20 µM.
`Cl.Cl.N#Cc1ccc(C(=O)CCN2CCN(Cc3ccccc3)CC2)s1` [Example 85, 1-(5″-Cyano-2″-thienyl)-3-(4′-benzyl-1′-piperazinyl)-1-propanone dihydrochloride]: in data set [1], the minimal effective concentration is reported as 20 µM.
Take `Cl.Cl.O=C(CCN1CCN(Cc2ccccc2)CC1)c1conc1-c1ccccc1` [Example 112, 1-(3″-Phenylisoxazol-4″-yl)-3-(4′-benzyl-1′-piperazinyl)-1-propanone dihydrochloride]: the minimal effective concentration in data set [1] turned out to be 20 µM.
Same read-out and setting: with `Cl.Cl.O=C(CCN1CCN(Cc2ccccc2)CC1)c1ccc(Nc2ccc([N+](=O)[O-])cc2[N+](=O)[O-])cc1` [Example 113] the figure was 20 µM.
As for `CC[C@]1(O)C[C@@H]2CN(CCc3c([nH]c4ccccc34)[C@@](C(=O)OC)(c3cc4c(cc3OC)N(C)[C@H]3[C@@](O)(C(=O)OC)[C@H](OC(C)=O)[C@]5(CC)C=CCN6CC[C@]43[C@@H]65)C2)C1` [vinblastine, reference compound], in data set [1] (Neuroblastoma cell), the minimal effective concentration was 0.05 µM.

The values are drawn from US20010025105A1, “Certain substituted 1-aryl-3-piperazine-1'-yl propanones” (Molecular Geriatarics Corporation, priority 1997, published 2001).
